{
  "source": "patent US20090253789A1",
  "about": "“Preventive/Remedy for Arteriosclerotic Disease and Method of Evaluating Therapeutic Procedure” (Takeda Pharmaceutical Company Limited, priority 2006, published 2009)",
  "key": {"[1]": {"system": "atherosclerotic lesion", "conditions": "pre-clinical tests; accompanied with reduction in plasma cholesterol level; cited from earlier work"}, "[2]": {"conditions": "clinical test; cited from earlier work"}, "[3]": {"target": "T1, ACAT (Oryctolagus cuniculus, UniProt A0A5F9CPP4)", "T1 construct": "to obtain a homogenate, which was used as an “atherosclerotic lesion sample” for a biochemical measurement; from tissue; host or cells: aortic atherosclerotic lesion tissue homogenate of WHHL rabbits dosed orally for 3 days", "T1 sequence (A0A5F9CPP4 1-555)": "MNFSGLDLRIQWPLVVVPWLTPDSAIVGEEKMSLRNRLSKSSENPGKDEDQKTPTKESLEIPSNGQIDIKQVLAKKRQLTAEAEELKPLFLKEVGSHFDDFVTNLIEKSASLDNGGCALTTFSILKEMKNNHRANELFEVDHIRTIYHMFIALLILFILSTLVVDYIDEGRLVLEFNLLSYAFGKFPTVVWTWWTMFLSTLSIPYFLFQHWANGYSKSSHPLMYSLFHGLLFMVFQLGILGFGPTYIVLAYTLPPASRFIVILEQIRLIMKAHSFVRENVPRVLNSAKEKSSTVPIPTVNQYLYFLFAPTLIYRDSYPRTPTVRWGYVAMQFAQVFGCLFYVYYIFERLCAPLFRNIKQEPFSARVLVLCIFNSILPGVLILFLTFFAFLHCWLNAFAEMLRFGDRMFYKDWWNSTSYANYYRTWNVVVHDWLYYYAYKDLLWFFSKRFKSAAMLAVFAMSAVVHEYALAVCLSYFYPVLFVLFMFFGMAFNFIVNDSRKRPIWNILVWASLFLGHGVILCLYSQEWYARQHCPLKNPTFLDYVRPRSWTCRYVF", "test": "Atherosclerotic lesion ACAT enzyme inhibition test (3-day oral administration, lesion homogenate, correction markers)", "assay_type": "in vivo, WHHL rabbit", "excerpt": "Using a rabbit having an atherosclerotic lesion in the aorta due to rearing with a high cholesterol diet, or due to hereditary hyperlipemia, etc., an ACAT inhibitor or a medium was orally administered once a day for 3 days. About two hours after final administration, the rabbit was anesthetized and killed by exsanguination, and the aorta was removed, frozen and stored. After thawing the frozen-stored aorta, a tissue section of an atherosclerotic lesion residing site was corrected using a biopsy trephine. […]\nAn ACAT reaction was measured by mixing a reaction buffer (0.19 M Tris-HCl pH 7.5, 3 mM EDTA, cholesterol 0.2 mg/ml, BSA 3 mg/ml), the aforementioned “atherosclerotic lesion sample”, and a substrate solution ([3H]Oleoyl-CoA), reacting the mixture with stirring at 37° C. for 30 minutes, fractionating a lipid fraction by thin layer chromatography, and measuring radioactivity (DPM) incorporated into a cholesteryl ester fraction with a liquid scintillation counter. Radioactivity of a blank sample (STE buffer instead of the homogenate was added) was also measured, and a value obtained by subtracting radioactivity of the blank from radioactivity of each sample was adopted as the ACAT enzyme activity. […]"}, "[4]": {"test": "Anti-atherosclerotic activity test in WHHL rabbit: plasma total cholesterol exposure amount", "assay_type": "in vivo", "conditions": "for Plasma total cholesterol exposure amount during administration period: average ± standard error, control 6194 ± 511, no significant difference (Williams' test)", "method": "(§1) Using 7-month-old WHHL rabbits, the compound X (3, 10 mg/kg/day) was orally administered once a day for 12 weeks and influence on atherosclerosis was examined. Before drug administration, aortic atherosclerosis was tested by intravascular ultrasound (IVUS), and WHHL rabbits were grouped based on the aortic atherosclerosis, plasma cholesterol level and sex.\n(§2) Before initiation of administration, and 1, 2, 4, 6, 8, 10, 12 weeks from administration, blood samples were collected, a plasma total cholesterol level of each sample was measured using a biochemical automatic analysis apparatus and a plasma total cholesterol exposure amount during the administration period was obtained by a trapezoid formula. After administration, the thoracic aorta was removed, and a cholesterol ester content as an index of atherosclerosis was measured."}, "[5]": {"system": "atherosclerotic lesion", "test": "Anti-atherosclerotic activity test in WHHL rabbit: cholesterol ester content of thoracic aorta", "assay_type": "in vivo", "method": "as §1, §2"}},
  "data": [
    {"compound": "CC(C)c1cc(C(C)C)c(CC(=O)NS(=O)(=O)Oc2c(C(C)C)cccc2C(C)C)c(C(C)C)c1", "note": "[Avasimibe]", "values": [
      {"measurement": "anti-atherosclerotic activity: cholesterol ester in an atherosclerotic lesion", "setting": "[1]", "result": "lowering a cholesterol ester in an atherosclerotic lesion"},
      {"measurement": "anti-atherosclerotic activity", "setting": "[2]", "result": "no effect was observed"},
      {"measurement": "effect on blood lipid level", "setting": "[2]", "result": "certain effect"}
    ]},
    {"compound": "Monopotassium bis((2E)-3-{3-[7-chloro-3-(2-{[4-fluoro-2-(trifluoromethyl)phenyl]amino}-2-oxoethyl)-6-methyl-2-oxo-2H-chromen-4-yl]phenyl}acrylate) trihydrate [compound X]", "values": [
      {"measurement": "inhibition of ACAT enzyme activity, LAL correction", "setting": "[3]; 3 mg/kg orally once a day for 3 days, vs control group", "result": "significant inhibition"},
      {"measurement": "inhibition of atherosclerotic lesion ACAT activity utilizing the correction marker", "setting": "[3]; 3 and 10 mg/kg, administration for 3 days", "result": "inhibited the atherosclerotic lesion ACAT activity of the WHHL rabbit dose-dependently"},
      {"measurement": "Plasma total cholesterol exposure amount during administration period", "setting": "[4]; 3 mg/kg/day orally for 12 weeks", "result": "5356 ± 410", "unit": "mg · week/dL"},
      {"measurement": "Plasma total cholesterol exposure amount during administration period", "setting": "[4]; 10 mg/kg/day orally for 12 weeks", "result": "4957 ± 490", "unit": "mg · week/dL"},
      {"measurement": "effect on plasma total cholesterol exposure amount during the administration period (in words)", "setting": "[4]; 3 and 10 mg/kg/day orally for 12 weeks", "result": "only a reduction tendency"},
      {"measurement": "anti-atherosclerotic activity by long-term treatment", "setting": "[5]; 3 and 10 mg/kg, long-term treatment", "result": "clear anti-atherosclerotic activity"},
      {"measurement": "cholesterol ester content of the thoracic aorta", "setting": "[5]; 3 and 10 mg/kg/day orally for 12 weeks (FIG. 10)", "result": "significantly reduced"}
    ]}
  ]
}
